For this assay, the target named is C2 domain of PKCα (Homo sapiens, UniProt P17252). In words: SPR equilibrium binding of PKCα-C2 to lipid vesicles containing PA derivatives.

Like-named read-outs stand apart in the source and are kept apart here.

Drawing on publication PMC5985520 (Molecular bioSystems, 2009), this text covers Kd for one molecule.

In general, Kd refers to the constant that tells how readily two partners part at equilibrium.

As to `CCCCCCCC/C=C\CCCCCCCC(=O)O[C@H](COC(=O)CCCCCCCCCCCCCCC)COP(=O)(O)O` [POPA, 1-palmitoyl-2-oleoyl-sn-glycero-3-phosphatidic acid], the Kd by setting is: (read-out: Kd (dissociation constant for binding of PKCα-C2 to vesicles containing PA derivative), POPC:POPE:PA (40:40:20) vesicles, 20 mol% PA, L1 chip, 25°C, 25 mM Tris HCl pH 7.4, 150 mM NaCl, 1 mM CaCl2, 1 mM DTT) 440 ± 50 nM; (read-out: Kd (dissociation constant for binding of PKCα-C2 to vesicles containing PA derivative), POPC:POPE:PA (55:40:5) vesicles, 5 mol% PA, L1 chip, 25°C, 25 mM Tris HCl pH 7.4, 150 mM NaCl, 1 mM CaCl2, 1 mM DTT) 490 ± 90 nM.
